The subject of assay [1] is rat traumatic brain injury (TBI) model. To be noted: Cheney et al. 2001; cited from earlier work.
The subject of assay [2] is cloned mammalian (mSlo or hSlo) BK channels. The experiment in a line: Increase of BK-mediated outward current in Xenopus oocytes, two-electrode voltage clamp. The class given is cell-based. Particulars: 10 μM; at least 5 oocytes; mSlo or hSlo expressed in Xenopus oocytes. The procedure:
(§1) The ability of the compound of Formula II to open BK channels and increase whole-cell outward (K^+) BK-mediated currents was assessed under voltage-clamp conditions by determining their ability to increase cloned mammalian (mSlo or hSlo) BK—mediated outward current heterologously expressed in Xenopus oocytes [Butler, A., et al., Science, 261, pp. 221-224 (1993); and Dworetzky, S. I., et al., Mol. Brain Res., 27, pp.189-193 (1994)]. The two BK constructs employed represent nearly structurally identical homologous proteins, and have proven to be pharmacologically identical in our tests. To isolate BK current from native (background, non-BK) current, the specific and potent BK channel-blocking toxin iberiotoxin (IBTX) [Galvez, A., et al., J. Biol. Chem, 265, pp.11083-11090 (1990)] was employed at a supramaximal concentration (50 nM). The relative contribution of BK channels current to total outward current was determined by subtraction of the current remaining in the presence of IBTX (non-BK current) from the current profiles obtained in all other experimental conditions (control, drug, and wash). […] The compound of Formula II was shown in at least 5 oocytes at a concentration of 10 μM to increase BK current to 170% of control of IBTX-sensitive current. […]

The test system of assay [3] is non-BK native currents in the oocytes. Put plainly: Effect on non-BK native currents in oocytes (current remaining with IBTX). The class given is cell-based, Xenopus. Particulars: at the tested concentration. The procedure:
as §1

Assay [4] relates to focal cerebral ischemia (MCAO) in the Wistar rat. Put plainly: Focal stroke model, permanent MCA and CCA occlusion. The class given is in vivo. To be noted: 0.3 mg/kg i.v. single bolus two hours after MCA occlusion; infarct measured 24 hours after MCAO. The procedure:
To determine the ability of the compounds of the present invention to reduce cell loss resulting from neuronal ischemia, a standard focal cerebral ischemia is induced by permanent occlusion of the left middle cerebral artery (MCA) and common carotid artery (CCA) with one hour occlusion of the right CCA in the Wistar rat. The surgeries are performed using the sub-temporal approach of A. Tamura, et al., J. Cereb. Blood Flow Metab., 1, pp. 53-60, (1981) and its modifications [K. Osborne, et al., J. Neurol Neurosurg. Psychiatry, 50, pp. 402-410 (1987) and S. Menzies, et al., Neurosurgery, 31, pp. 100-107, (1992).]
The compound of Formula II was evaluated in the focal stroke model involving permanent occlusion of the left MCA (MCAO) and CCA (CCAO) and temporary occlusion of the right CCA in the Wistar rat [Gribkoff, et al. Nature Med. 7, pp. 471-477 (2001)]. This procedure results in a reliably large neocortical infarct volume that is measured by means of vital dye exclusion in serial slices through the brain 24 hours after MCAO. In the present test, compounds were administered using an i.v. or i.p. route of administration two hours after occlusion.

This is an account of results in patent US6916937B2, “Carbohydrate prodrugs of fluorooxindoles” (Bristol-Myers Squibb Company, priority 2003, dated 2005).

Molecules are shown by their SMILES.

On to `COc1ccc(Cl)cc1[C@]1(F)C(=O)Nc2cc(C(F)(F)F)ccc21` [Compound of Formula (S)-II, (S)-3-(5-chloro-2-methoxy-phenyl)-3-fluoro-6-trifluoromethyl-1,3-dihydro-indol-2-one], for which, in assay [1], the “Reduction in edema in regions adjacent to the impact zone” value is “significant reductions in edema”.
`COc1ccc(Cl)cc1C1(F)C(=O)Nc2cc(C(F)(F)F)ccc21` (racemic) [compound of Formula II, 3-(5-chloro-2-methoxyphenyl)-1,3-dihydro-3-fluoro-6-(trifluoromethyl)-2H-indol-2-one]: the “BK current, % of control of IBTX-sensitive current” value in assay [2] is reported as 170 % of control. In addition, the “Effect on non-BK native currents in the oocytes” value in assay [3] was “did not effect”. The “Reduction of cortical infarct volume vs vehicle-treated control” value in assay [4] is recorded as “about 28%”.
